Laboratory results as given in ChEMBL document CHEMBL4765425, “Synthesis of 1,3,4-oxadiazole derivatives with anticonvulsant activity and their binding to the GABA receptor” (Eur J Med Chem, 2020).
Calls of active or inactive are those of the source. The calls are words filed in the database; no cut-off is given here.

Columns and labels:
[1] = Neurotoxicity in Kunming mouse at 300 mg/kg, ip measured after 30 mins by rotarod test; format: toxicity, organism-based; conditions: in vivo, 0.5 h
[2] = Neurotoxicity in Kunming mouse at 100 mg/kg, ip measured after 30 mins by rotarod test; format: toxicity, organism-based; conditions: in vivo, 0.5 h
Mus musculus [3] = assay: Anticonvulsant activity in Kunming mouse assessed as reduction in ScPTZ-induced seizure at 300 mg/kg, ip measured after 30 mins; format: functional, organism-based
Mus musculus [4] = assay: Anticonvulsant activity in Kunming mouse assessed as reduction in MES-induced seizure at 300 mg/kg, ip measured after 30 mins; format: functional, organism-based
Mus musculus [5] = assay: Anticonvulsant activity in Kunming mouse assessed as reduction in ScPTZ-induced seizure at 100 mg/kg, ip measured after 30 mins; format: functional, organism-based
Mus musculus [6] = assay: Anticonvulsant activity in Kunming mouse assessed as reduction in MES-induced seizure at 30 mg/kg, ip measured after 30 mins; format: functional, organism-based
Mus musculus [7] = assay: Anticonvulsant activity in Kunming mouse assessed as reduction in MES-induced seizure at 100 mg/kg, ip measured after 30 mins; format: functional, organism-based
[8] = Displacement of [3H]flunitrazepam from GABA-A receptor benzodiazepine site in mouse cerebellum synaptosomal membrane; format: subcellular, Synaptosome
[9] = Neurotoxicity in ip dosed Kunming mouse measured after 30 mins by rotarod test; format: toxicity, organism-based; conditions: in vivo
Mus musculus [10] = assay: Anticonvulsant activity in ip dosed Kunming mouse assessed as reduction in MES-induced seizure measured after 30 mins; format: functional; conditions: 0.5 h
[11] = Protection index, ratio of TD50 for neurotoxicity in ip dosed Kunming mouse to ED50 for anticonvulsant activity in ip dosed ScPTZ-induced Kunming mouse; format: toxicity, organism-based; conditions: in vivo, read-out: TI
Mus musculus [12] = assay: Anticonvulsant activity in ip dosed Kunming mouse assessed as reduction in ScPTZ-induced seizure measured after 30 mins; format: functional; conditions: 0.5 h
[13] = Protection index, ratio of TD50 for neurotoxicity in ip dosed Kunming mouse to ED50 for anticonvulsant activity in ip dosed MES-induced Kunming mouse; format: toxicity, organism-based; conditions: in vivo, read-out: TI

For `CC(=O)Nc1ccc(OCc2nnc(SCc3ccccc3)o2)cc1`, the Activity [1] was “Non-Toxic” and the Activity [2] was “Non-Toxic”.

With `CC(=O)Nc1ccc(OCc2nnc(SCc3ccccc3C)o2)cc1` the Activity [1] was “Non-Toxic”, the Activity (Mus musculus [3]) was “Active” and the Activity [2] was “Non-Toxic”. The Activity (Mus musculus [4]) was “Active”.

In the case of `O=C1CCc2cc(OCc3nnc(SCc4ccccc4Cl)o3)ccc2N1`, the Activity (Mus musculus [5]) is reported as “inactive”, the Activity [1] is reported as “Non-Toxic” and the Activity [2] is reported as “Non-Toxic”. For the same compound, the Activity (Mus musculus [4]) was “Active”.

In the case of `O=C1CCc2cc(OCc3nnc(SCc4cccc(C(F)(F)F)c4)o3)ccc2N1`, the Activity [1] is reported as “Non-Toxic”, the Activity (Mus musculus [3]) is reported as “Active” and the Activity [2] is reported as “Non-Toxic”. For the same compound, the Activity (Mus musculus [4]) was “Active”.

In the case of `CCCCSc1nnc(COc2ccc3c(c2)CCC(=O)N3)o1`, the Activity [1] is reported as “Non-Toxic”, the Activity (Mus musculus [3]) is reported as “Active” and the Activity [2] is reported as “Non-Toxic”. For the same compound, the Activity (Mus musculus [4]) was “Active”.

For `CCCCCCCCSc1nnc(COc2ccc(NC(C)=O)cc2)o1`, the Activity (Mus musculus [6]) was “inactive”, the Activity [1] was “Non-Toxic” and the Activity [2] was “Non-Toxic”.

With `CC(=O)Nc1ccc(OCc2nnc(SCc3cccc(C)c3)o2)cc1` the Activity [1] was “Non-Toxic” and the Activity [2] was “Non-Toxic”.

For `CC(=O)Nc1ccc(OCc2nnc(SCc3cccc(C(F)(F)F)c3)o2)cc1`, the Activity [1] was “Non-Toxic”, the Activity (Mus musculus [3]) was “Active” and the Activity [2] was “Non-Toxic”. The Activity (Mus musculus [4]) was “Active”.

For `CCCCCCCCCSc1nnc(COc2ccc(NC(C)=O)cc2)o1`, the Activity (Mus musculus [7]) was “inactive”, the Activity (Mus musculus [5]) was “inactive” and the Activity [1] was “Non-Toxic”. For the same compound, the Activity [2] was “Non-Toxic”.

For `CCCCCCSc1nnc(COc2ccc(-n3cnnc3)cc2)o1`, the IC50 [8] was 9.31 µM, the TD50 at 0.5 h [9] was 385 mg/kg and the ED50 (Mus musculus [10]) was 26.6 mg/kg. The Activity (Mus musculus [7]) was “Active”, the Activity (Mus musculus [5]) was “Active” and the selectivity ratio [11] was 13.5. For the same compound, the Activity [1] was “Non-Toxic”, the ED50 (Mus musculus [12]) was 28.4 mg/kg and the selectivity ratio [13] was 14.4. The Activity [2] was “Non-Toxic”.

For `CCCCSc1nnc(COc2ccc(NC(C)=O)cc2)o1`, the Activity (Mus musculus [6]) was “inactive”, the Activity [1] was “Non-Toxic” and the Activity [2] was “Non-Toxic”.

In the case of `CC(=O)Nc1ccc(OCc2nnc(SCc3ccc(F)cc3)o2)cc1`, the Activity [1] is reported as “Non-Toxic”, the Activity (Mus musculus [3]) is reported as “Active” and the Activity [2] is reported as “Non-Toxic”. For the same compound, the Activity (Mus musculus [4]) was “Active”.

In the case of `CCCCCCCSc1nnc(COc2ccc3c(c2)CCC(=O)N3)o1`, the Activity [1] is reported as “Non-Toxic”, the Activity [2] is reported as “Non-Toxic” and the Activity (Mus musculus [4]) is reported as “Active”.

With `O=C1CCc2cc(OCc3nnc(SCc4ccc(Cl)cc4)o3)ccc2N1` the Activity (Mus musculus [5]) was “inactive”, the Activity [1] was “Non-Toxic” and the Activity [2] was “Non-Toxic”.

With `O=C1CCc2cc(OCc3nnc(SCc4cccc(F)c4)o3)ccc2N1` the Activity [1] was “Non-Toxic” and the Activity [2] was “Non-Toxic”.

In the case of `CCCCCCSc1nnc(COc2ccc(NC(C)=O)cc2)o1`, the IC50 [8] is reported as 4.12 µM, the TD50 at 0.5 h [9] is reported as 420 mg/kg and the ED50 (Mus musculus [10]) is reported as 20.9 mg/kg. The Activity (Mus musculus [7]) was “Active”, the Activity (Mus musculus [5]) was “Active” and the selectivity ratio [11] was 15.6. For the same compound, the Activity [1] was “Non-Toxic”, the ED50 (Mus musculus [12]) was 26.8 mg/kg and the selectivity ratio [13] was 20.1. The Activity [2] was “Non-Toxic”.

With `O=C1CCc2cc(OCc3nnc(SCc4cccc(Cl)c4)o3)ccc2N1` the Activity [1] was “Non-Toxic”, the Activity (Mus musculus [3]) was “Active” and the Activity [2] was “Non-Toxic”. The Activity (Mus musculus [4]) was “Active”.

With `CC(=O)Nc1ccc(OCc2nnc(SCc3ccc(Cl)cc3)o2)cc1` the Activity (Mus musculus [7]) was “inactive”, the Activity (Mus musculus [5]) was “inactive” and the Activity [1] was “Non-Toxic”. For the same compound, the Activity [2] was “Non-Toxic”.

For `CCCCCCCCSc1nnc(COc2ccc3c(c2)CCC(=O)N3)o1`, the Activity (Mus musculus [6]) was “inactive”, the Activity [1] was “Non-Toxic” and the Activity [2] was “Non-Toxic”. For the same compound, the Activity (Mus musculus [4]) was “Active”.

For `CC(=O)Nc1ccc(OCc2nnc(SCc3cccc(F)c3)o2)cc1`, the Activity (Mus musculus [7]) was “inactive”, the Activity (Mus musculus [5]) was “inactive” and the Activity [1] was “Non-Toxic”. For the same compound, the Activity [2] was “Non-Toxic”.

With `O=C1CCc2cc(OCc3nnc(SCc4ccccc4)o3)ccc2N1` the Activity [1] was “Non-Toxic”, the Activity [2] was “Non-Toxic” and the Activity (Mus musculus [4]) was “Active”.

For `Cc1cccc(CSc2nnc(COc3ccc4c(c3)CCC(=O)N4)o2)c1`, the Activity [1] was “Non-Toxic”, the Activity (Mus musculus [3]) was “Active” and the Activity [2] was “Non-Toxic”. The Activity (Mus musculus [4]) was “Active”.

In the case of `CCCCCSc1nnc(COc2ccc(NC(C)=O)cc2)o1`, the IC50 [8] is reported as 1.29 µM, the TD50 at 0.5 h [9] is reported as 389 mg/kg and the ED50 (Mus musculus [10]) is reported as 22.6 mg/kg. For the same compound, the Activity (Mus musculus [7]) was “Active”, the Activity (Mus musculus [5]) was “Active” and the selectivity ratio [11] was 13.8. For the same compound, the Activity [1] was “Non-Toxic”, the ED50 (Mus musculus [12]) was 28.1 mg/kg and the selectivity ratio [13] was 17.2. The Activity [2] was “Non-Toxic”.

In the case of `CC(=O)Nc1ccc(OCc2nnc(SCc3ccc(C)cc3)o2)cc1`, the Activity [1] is reported as “Non-Toxic”, the Activity (Mus musculus [3]) is reported as “Active” and the Activity [2] is reported as “Non-Toxic”. The Activity (Mus musculus [4]) was “Active”.

In the case of `CC(=O)Nc1ccc(OCc2nnc(SCc3cccc(Cl)c3)o2)cc1`, the Activity (Mus musculus [7]) is reported as “inactive”, the Activity (Mus musculus [5]) is reported as “inactive” and the Activity [1] is reported as “Non-Toxic”. For the same compound, the Activity [2] was “Non-Toxic”.

In the case of `CCCCSc1nnc(COc2ccc(-n3cnnc3)cc2)o1`, the Activity [1] is reported as “Non-Toxic”, the Activity [2] is reported as “Non-Toxic” and the Activity (Mus musculus [4]) is reported as “Active”.

With `O=C1CCc2cc(OCc3nnc(SCc4ccccc4C(F)(F)F)o3)ccc2N1` the Activity [1] was “Non-Toxic”, the Activity (Mus musculus [3]) was “Active” and the Activity [2] was “Non-Toxic”. For the same compound, the Activity (Mus musculus [4]) was “Active”.

For `CC(=O)Nc1ccc(OCc2nnc(SCc3ccccc3C(F)(F)F)o2)cc1`, the Activity [1] was “Non-Toxic” and the Activity [2] was “Non-Toxic”.

With `CCCCCCCCCSc1nnc(COc2ccc3c(c2)CCC(=O)N3)o1` the Activity (Mus musculus [5]) was “inactive”, the Activity [1] was “Non-Toxic” and the Activity [2] was “Non-Toxic”. For the same compound, the Activity (Mus musculus [4]) was “Active”.

In the case of `Cc1ccccc1CSc1nnc(COc2ccc3c(c2)CCC(=O)N3)o1`, the Activity [1] is reported as “Non-Toxic”, the Activity (Mus musculus [3]) is reported as “Active” and the Activity [2] is reported as “Non-Toxic”. The Activity (Mus musculus [4]) was “Active”.

For `CCC1(C)CC(=O)NC1=O` (stereo not given) [ETHOSUXIMIDE], the TD50 at 0.5 h [9] was 343 mg/kg, the selectivity ratio [11] was 3.2 and the ED50 (Mus musculus [12]) was 106 mg/kg. The Activity [2] was “Non-Toxic”.

With `CCCCCCCSc1nnc(COc2ccc(NC(C)=O)cc2)o1` the Activity [1] was “Non-Toxic” and the Activity [2] was “Non-Toxic”.

In the case of `O=C1CCc2cc(OCc3nnc(SCc4ccc(F)cc4)o3)ccc2N1`, the Activity (Mus musculus [7]) is reported as “inactive”, the Activity [1] is reported as “Non-Toxic” and the Activity (Mus musculus [3]) is reported as “Active”. The Activity [2] was “Non-Toxic”.

With `Cc1ccc(CSc2nnc(COc3ccc4c(c3)CCC(=O)N4)o2)cc1` the Activity (Mus musculus [7]) was “Active”, the Activity [1] was “Non-Toxic” and the Activity [2] was “Non-Toxic”. For the same compound, the Activity (Mus musculus [4]) was “Active”.

For `O=C1CCc2cc(OCc3nnc(SCc4ccccc4F)o3)ccc2N1`, the Activity [1] was “Non-Toxic”, the Activity (Mus musculus [3]) was “Active” and the Activity [2] was “Non-Toxic”. For the same compound, the Activity (Mus musculus [4]) was “Active”.

In the case of `CC(=O)Nc1ccc(OCc2nnc(SCc3ccc(C(F)(F)F)cc3)o2)cc1`, the Activity (Mus musculus [7]) is reported as “Active”, the Activity (Mus musculus [5]) is reported as “Active” and the Activity [1] is reported as “Non-Toxic”. The Activity [2] was “Non-Toxic”.

With `CC(=O)Nc1ccc(OCc2nnc(SCc3ccccc3Cl)o2)cc1` the Activity [1] was “Non-Toxic”, the Activity (Mus musculus [3]) was “Active” and the Activity [2] was “Non-Toxic”. For the same compound, the Activity (Mus musculus [4]) was “Active”.
